The values below come from article PMC3647702 (ACS medicinal chemistry letters, 2013).

Test [1] has as its target full-length gp120 (Human immunodeficiency virus type 1 group M subtype B, UniProt P35961). The following applies: gp120 binding; cited from earlier work.
For test [2], the system named is HIV-1YU2 virus in CD4 negative Cf2Th-CCR5 cells. The following applies: cells lacking the CD4 receptor (CD4–CCR5+ Cf2Th cells); cited from earlier work.
Test [3] has as its system 42 Tier 2 clade B and C viruses. The following applies: read-out: geometric mean titers (GMT) IC50, sensitive strains; cited from earlier work.
Test [4] deals with clade C viruses. In words: Neutralization of clade C Env pseudoviruses. Type of test: cell-based, HIV-1.
In test [5] the test system is clade B viruses. In words: Neutralization of clade B Env pseudoviruses. Type of test: cell-based, HIV-1.

On to `CC1(C)CC(NC(=O)C(=O)Nc2ccc(Cl)cc2)CC(C)(C)N1` [Compound 1, NBD-556], for which, in test [1], the ΔH is -24.5 kcal/mol and the “−TΔS” value was 17.1 kcal/mol. In test [2], the CD4-independent viral entry entry is recorded as “agonists of CD4-independent viral entry”.
In general, IC50 refers to the point on the concentration scale where inhibition reaches its midpoint. As to `N=C(N)N[C@@H]1Cc2ccccc2[C@H]1NC(=O)C(=O)Nc1ccc(Cl)c(F)c1` [(−)-3], in test [3], the IC50 is 8.9 µM.
With `N=C(N)NC[C@H]1Cc2ccccc2[C@@H]1NC(=O)C(=O)Nc1ccc(Cl)c(F)c1.O=CO` [(+)-4], the neutralization breadth in test [4] is reported as 59%. In test [5], the “improvement over (+)-3 based on IC50 titers” value is recorded as 60%, the “improvement over (+)-3 based on IC80 titers” value amounted to 1.5 fold and the neutralization breadth was determined as 100%.
As for `N=C(N)N[C@H]1Cc2ccccc2[C@@H]1NC(=O)C(=O)Nc1ccc(Cl)c(F)c1` [(+)-3], the IC50 in test [3] is 7.9 µM.
